Assay results as given in patent US12559454B2, “Benzenesulfonamide derivatives and uses thereof” (2692372 Ontario, Inc., priority 2019, dated 2026).

Key:
BTK [1] = target: T1, BTK (Homo sapiens, UniProt Q06187); test: BTK irreversible inhibition, enzyme kinetic analysis; assay type: biochemical; conditions: 0.1 nM BTK, 500 μM ATP
Procedure: One of ordinary skill in the art will recognize that this is consistent with the irreversible inhibition of BTK by compound I-A1.
One of ordinary skill in the art will recognize that this is consistent with the irreversible inhibition of BTK by compound I-A6.
One of ordinary skill in the art will recognize that this is consistent with the irreversible inhibition of BTK by compound 3A-2.
The shift of IC50 to a lower value after pre-incubation of the enzyme indicates to one of ordinary skill in the art that a significant portion of the enzyme was inhibited irreversibly during the incubation period.

BTK [2] = target: T1, BTK; test: In vitro BTK inhibition (no preincubation); assay type: biochemical
[3] = target: T2, His-tagged BTK kinase domain (Homo sapiens, UniProt Q06187); test: Mass spectral analysis of tryptic digest of BTK kinase domain; assay type: binding; conditions: 10 μM BTK KD, 10 μM compound, 45 min; for C481 covalent modification: tryptic peptide 467-487
T2 construct: Intact His-tagged BTK kinase domain (SOURCE)(10 μM) was incubated
T2 sequence (Q06187 402-655 limits assumed): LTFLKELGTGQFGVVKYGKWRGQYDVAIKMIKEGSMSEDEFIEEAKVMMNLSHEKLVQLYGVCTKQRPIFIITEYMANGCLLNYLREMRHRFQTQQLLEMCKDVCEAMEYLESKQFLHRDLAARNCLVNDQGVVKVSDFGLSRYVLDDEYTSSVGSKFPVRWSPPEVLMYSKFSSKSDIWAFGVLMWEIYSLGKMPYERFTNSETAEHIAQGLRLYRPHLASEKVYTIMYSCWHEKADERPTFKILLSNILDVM
Procedure: A protein kinase that is inhibited by compound and/or pharmaceutically acceptable salt of the present disclosure may be subjected to mass spectral analysis to assess the formation of permanent, irreversible covalent adducts. […] Such methods identify permanent, irreversible covalent protein adducts by observing a mass peak that corresponds to the mass of a control sample plus the mass of an irreversible adduct.
After the incubation time, the reactions were quenched by acetone precipitation and the pellet was re-dissolved in 8 M Urea. […] The BTK protein band was then excised and subjected to an in-gel trypsin digest by reducing the protein (5 mM DTT), alkylating the thiols with iodoacetamide (15 mM), and then incubating the protein gel band with trypsin in a 37 C water bath (4 hours). The tryptic digestion was then quenched by the addition of trifluoroacetic acid, and peptides were removed from the gel band by sonicating with increasing amounts of acetonitrile (0%, 30%, & 60%). Peptides were then purified using C18 ziptips, spotted on the MALDI target plate with α-cyano-4-hydroxycinnamic acid as the desorption matrix (10 mg/mL in 0.10% TFA:Acetonitrile 50:50), and analyzed in reflectron mode.

tubulin = test: Tubulin polymerization assay; assay type: biochemical; conditions: for % Inhibition: Vmax normalized to tubulin only control; for % D.O.P.: degree of polymerization relative to tubulin control
Procedure: A96-well half-area clear flat-bottom microplate (Corning® #3697) was pre-heated in a plate reader (Cytation 3, BioTek) at 37° C. for 15 minutes prior to the start of each assay. Tubulin polymerization buffer (80 mM PIPES pH 6.9, 2 mM MgCl2, 0.5 mM EGTA, 15% glycerol, 1 mM GTP) was prepared from stock solutions and placed on ice. Inhibitors were prepared to M concentrations in buffer (80 mM PIPES pH 6.9, 2 mM MgCl2, 0.5 mM EGTA, 5% DMSO) from DMSO stock solutions. After the assay plate was pre-warmed, 10 μL of inhibitor or buffer control was added to selected wells. Every assay contained a tubulin only negative control for normalization of data, and a batabulin positive control. The assay plate was incubated at 37° C. for 3 minutes. During this time, a frozen aliquot of tubulin (10 mg/mL) in buffer (80 mM PIPES pH 6.9, 2 mM MgCl2, 0.5 mM EGTA) was defrosted by placing in a room temperature water bath. Once thawed, 200 μL of tubulin was mixed with 420 μL ice cold tubulin polymerization buffer (3 mg/mL tubulin in 80 mM PIPES, pH 6.9, 2 mM MgCl2, 0.5 mM EGTA, 1 mM GTP, 10.2% glycerol). To a 96-well plate on ice, aliquots of 100 μL tubulin was added to each well. From this plate, 90 μL of tubulin was immediately pipetted into all sample wells of the warmed assay plate using a multi-channel pipette. The assay plate was immediately put in the reader at 37° C. and shook for 5 s with orbital shaking at medium speed. The reader recorded the absorbance at 340 nm every 15 s for 30 min.
The resulting absorbance curves were normalized by subtracting each data point by the absorbance at time 0.
The largest change in absorbance over the assay time course was also recorded and related to the tubulin control as the % degree of polymerization (% D.O.P.).

MOLM-13 cells = test: CellTiter-Blue cell viability, MOLM-13; assay type: cell-based; conditions: Homo sapiens, 72 hrs exposure
Procedure: (§1) Anti-cancer efficacy of exemplary compounds of this application was assessed in vitro in different cancer cell lines. Cell viability was examined following treatment at various concentration of inhibitor (0.097656-50 μM) using a cell Titer-Blue cell viability assay. 1×10^4 cells (NHF, MV4-11, K562 and MOLM-13 cells)/well were plated in 96-well assay plates in culture medium. All cells were grown in DMEM, IMDM and RPMI-1640 supplemented with 10% FBS. After 24 hrs, test compounds and vehicle controls were added to appropriate wells so the final volume was 100 μl in each well. The cells were cultured for the desired test exposure period (72 hrs) at 37° C. and 5% CO2. The assay plates were removed from 37° C. incubator and 20 μl/well of CellTiter-Blue® Reagent was added. The plates were incubated using standard cell culture conditions for 1-4 hours and the plates were shaken for 10 seconds and record fluorescence at 560/590 nm.

K562 cells = test: CellTiter-Blue cell viability, K562; assay type: cell-based; conditions: Homo sapiens, 72 hrs exposure
Procedure: as §1

MV4-11 cells = test: CellTiter-Blue cell viability, MV-4-11; assay type: cell-based; conditions: Homo sapiens, 72 hrs exposure
Procedure: as §1

T1 sequence (Q06187 whole entry, species assumed): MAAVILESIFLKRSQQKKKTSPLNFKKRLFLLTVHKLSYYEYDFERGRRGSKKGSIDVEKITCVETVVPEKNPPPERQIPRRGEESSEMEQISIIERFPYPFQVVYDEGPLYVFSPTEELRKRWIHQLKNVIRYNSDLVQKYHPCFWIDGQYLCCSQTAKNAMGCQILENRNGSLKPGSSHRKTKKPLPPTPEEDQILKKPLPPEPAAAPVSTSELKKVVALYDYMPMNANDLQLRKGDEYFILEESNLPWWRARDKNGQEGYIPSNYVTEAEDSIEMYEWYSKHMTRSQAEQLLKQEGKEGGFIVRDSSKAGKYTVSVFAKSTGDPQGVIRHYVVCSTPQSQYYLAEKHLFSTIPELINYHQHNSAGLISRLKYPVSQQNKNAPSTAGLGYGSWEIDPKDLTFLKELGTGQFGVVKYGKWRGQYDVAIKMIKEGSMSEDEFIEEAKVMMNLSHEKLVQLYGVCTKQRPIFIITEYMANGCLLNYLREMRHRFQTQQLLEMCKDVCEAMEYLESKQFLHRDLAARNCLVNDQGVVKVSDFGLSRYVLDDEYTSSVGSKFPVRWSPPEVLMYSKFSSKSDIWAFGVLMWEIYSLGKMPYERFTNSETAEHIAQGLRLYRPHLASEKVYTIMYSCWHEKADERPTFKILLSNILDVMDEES

Row | Compound | % Inhibition (tubulin) | % D.O.P. (tubulin) | IC50 (MOLM-13 cells) [nM] | IC50 (K562 cells) [nM] | IC50 (MV4-11 cells) [nM] | also measured
1 | Nc1ncnc2c1c(-c1ccc(Oc3ccccc3)cc1)nn2[C@@H]1CCCN(S(=O)(=O)c2c(F)c(F)c(F)c(F)c2OCC(F)(F)F)C1 [Compound 3A-2, (R)-3-(4-phenoxyphenyl)-1-(1-((2,3,4,5-tetrafluoro-6-(2,2,2 trifluoroethoxy)phenyl)sulfonyl)piperidin-3-yl)-1H-pyrazolo[3,4-d]pyrimidin-4-amine] |  |  |  |  |  | inhibition profile by enzyme kinetic analysis (BTK [1]): time-dependent inhibition; kinact (BTK [1]; saturation kinetics): 0.00169 s⁻¹; Ki (BTK [1]; saturation kinetics of irreversible inhibition): 120 nM; IC50 (BTK [2]; Table 17): 100 to 1000 nM
2 | Nc1ncnc2c1c(-c1ccc(Oc3ccccc3)cc1)nn2[C@@H]1CCN(S(=O)(=O)c2cc(F)c(F)c(F)c2F)C1 [Compound 3A-4, 3-(4-phenoxyphenyl)-1-[(3R)-1-(2,3,4,5-tetrafluorophenyl)sulfonylpyrrolidin-3-yl]pyrazolo[3,4-d]pyrimidin-4-amine] |  |  |  |  |  | C481 covalent modification [3]: covalent modification and ✓
3 | Nc1ncnc2c1c(-c1ccc(Oc3ccccc3)cc1)nn2CCNS(=O)(=O)c1c(F)c(F)c(F)c(F)c1F [Compound 3A-9, N-[2-[4-amino-3-(4-phenoxyphenyl)pyrazolo[3,4-d]pyrimidin-1-yl]ethyl]-2,3,4,5,6-pentafluoro-benzenesulfonamide] |  |  |  |  |  | C481 covalent modification [3]: covalent modification and ✓; C527 covalent modification ([3]; tryptic peptide 526-536): covalent modification and ✓; IC50 (BTK [2]; Table 18): 0.1 to 10 nM
4 | Nc1ncnc2c1c(-c1ccc(Oc3ccccc3)cc1)nn2CCCNS(=O)(=O)c1c(F)c(F)c(F)c(F)c1F [Compound 3A-10, N-(3-(4-amino-3-(4-phenoxyphenyl)-1H-pyrazolo[3,4-d]pyrimidin-1-yl)propyl)-2,3,4,5,6-pentafluorobenzenesulfonamide] |  |  |  |  |  | IC50 (BTK [2]; Table 17): 0.1 to 10 nM
5 | Nc1ncnc2c1c(-c1ccc(Oc3ccccc3)cc1)nn2C1CN(S(=O)(=O)c2c(F)c(F)c(F)c(F)c2F)C1 [Compound 3A-24, 1-(1-((perfluorophenyl)sulfonyl)azetidin-3-yl)-3-(4-phenoxyphenyl)-1H-pyrazolo[3,4-d]pyrimidin-4-amine] |  |  |  |  |  | IC50 (BTK [2]; Table 17): 0.1 to 10 nM
6 | COCCOc1ccc(Nc2ncc(F)c(NCCNS(=O)(=O)c3c(F)c(F)c(F)c(F)c3F)n2)cc1 [Compound 3A-37, 2,3,4,5,6-pentafluoro-N-(2-((5-fluoro-2-((4-(2-methoxyethoxy)phenyl)amino)pyrimidin-4-yl)amino)ethyl)benzenesulfonamide] |  |  |  |  |  | C481 covalent modification [3]: covalent modification and ✓
7 | COCCOc1ccc(Nc2ncc(F)c(Nc3ccc(NS(=O)(=O)c4c(F)c(F)c(F)c(F)c4F)cc3)n2)cc1 [Compound 3A-38, 2,3,4,5,6-pentafluoro-N-(4-((5-fluoro-2-((4-(2-methoxyethoxy)phenyl)amino)pyrimidin-4-yl)amino)phenyl)benzenesulfonamide] |  |  |  |  |  | C481 covalent modification [3]: covalent modification and ✓
8 | COc1ccc(NS(=O)(=O)c2c(F)c(F)c(F)c(F)c2OC2COC2)cc1F [Compound I-72, 2,3,4,5-tetrafluoro-N-(3-fluoro-4-methoxyphenyl)-6-(oxetan-3-yloxy)benzenesulfonamide] | A (<10%) | A (>85%) | > 10000 | > 10000 | 100 to 1000 | 
9 | COc1ccc(NS(=O)(=O)c2c(F)c(F)c(F)c(F)c2OCC2COC2)cc1F [Compound I-73, 2,3,4,5-tetrafluoro-N-(3-fluoro-4-methoxyphenyl)-6-(oxetan-3-ylmethoxy)benzenesulfonamide] | A (<10%) | A (>85%) | 1000 to 10000 | 1000 to 10000 | 100 to 1000 | 
10 | COc1ccc(NS(=O)(=O)c2c(F)c(F)c(F)c(F)c2OCC(C)(C)C)cc1F [Compound I-74, 2,3,4,5-tetrafluoro-N-(3-fluoro-4-methoxyphenyl)-6-(neopentyloxy)benzenesulfonamide] | A (<10%) | A (>85%) | > 10000 | > 10000 | > 10000 | 
11 | COc1ccc(NS(=O)(=O)c2c(F)c(F)c(F)c(F)c2Oc2ccc(O)cc2)cc1F [Compound I-77, 2,3,4,5-tetrafluoro-N-(3-fluoro-4-methoxyphenyl)-6-(4-hydroxyphenoxy)benzenesulfonamide] | A (<10%) | A (>85%) | > 10000 | > 10000 | 1000 to 10000 | 
12 | COc1ccc(NS(=O)(=O)c2c(F)c(F)c(F)c(F)c2Oc2ccc(OC)c(F)c2)cc1F [Compound I-78, 2,3,4,5-tetrafluoro-6-(3-fluoro-4-methoxyphenoxy)-N-(3-fluoro-4-methoxyphenyl)benzenesulfonamide] | B (10-20%) | B (< 85%) | 1000 to 10000 | 1000 to 10000 | 1000 to 10000 | 
13 | COc1ccc(Oc2c(F)c(F)c(F)c(F)c2S(=O)(=O)Nc2ccc(OC)c(F)c2)cc1 [Compound I-79, 2,3,4,5-tetrafluoro-N-(3-fluoro-4-methoxyphenyl)-6-(4-methoxyphenoxy)benzenesulfonamide] | A (<10%) | A (>85%) | 1000 to 10000 | > 10000 | 1000 to 10000 | 
14 | COc1ccc(NS(=O)(=O)c2c(F)c(F)c(F)c(F)c2OCF)cc1F [Compound I-83, 2,3,4,5-tetrafluoro-N-(3-fluoro-4-methoxyphenyl)-6-(fluoromethoxy)benzenesulfonamide] | C (>20%) | B (< 85%) | ≤ 100 | ≤ 100 | ≤ 100 | 
15 | COc1ccc(NS(=O)(=O)c2c(F)c(F)c(F)c(F)c2C(=O)C(F)(F)F)cc1F [Compound I-90, 2,3,4,5-tetrafluoro-N-(3-fluoro-4-methoxyphenyl)-6-(2,2,2-trifluoroacetyl)benzenesulfonamide] | A (<10%) | A (>85%) | 1000 to 10000 | > 10000 | 1000 to 10000 | 
16 | COc1ccc(NS(=O)(=O)c2cc(F)c(F)c(F)c2F)cc1F [Compound I-93, 2,3,4,5-tetrafluoro-N-(3-fluoro-4-methoxyphenyl)benzenesulfonamide] | C (>20%) | B (< 85%) | 100 to 1000 | ≤ 100 | ≤ 100 | 
